Assay results as given in article PMC3925156, “Β-Amylase from Starchless Seeds of Trigonella Foenum-Graecum and Its Localization in Germinating Seeds” (PLoS ONE, 2014).

Biological target: T1, Fenugreek β-amylase
T1 construct: gene BMY1; native, purified from ungerminated seeds (acetone, DEAE-cellulose, glycogen precipitation)
Test: starch hydrolysis assay, Dixon plot
Assay type: biochemical, Trigonella foenum-graecum
Conditions: competitive; starch substrate, pH 5.0, 30°C, 10 min preincubation

Ki	Structure (SMILES)
2.32 mM	OC[C@H]1O[C@@](CO)(O[C@H]2O[C@H](CO)[C@@H](O)[C@H](O)[C@H]2O)[C@@H](O)[C@@H]1O [sucrose]
3.97 mM	OC[C@H]1O[C@@H]2O[C@H]3[C@H](O)[C@@H](O)[C@@H](O[C@H]4[C@H](O)[C@@H](O)[C@@H](O[C@H]5[C@H](O)[C@@H](O)[C@@H](O[C@H]6[C@H](O)[C@@H](O)[C@@H](O[C@H]7[C@H](O)[C@@H](O)[C@@H](O[C@H]1[C@H](O)[C@H]2O)O[C@@H]7CO)O[C@@H]6CO)O[C@@H]5CO)O[C@@H]4CO)O[C@@H]3CO [α-cyclodextrin]
